# From ChEMBL document CHEMBL4425115, “Discovery and Structure-Activity Relationship (SAR) of a Series of Ethanolamine-Based Direct-Acting Agonists of Sphingosine-1-phosphate (S1P1)” (J Med Chem, 2016)
# Columns and labels:
# [1] = Cmax in mouse plasma at 1 mg/kg, iv or 1 mg/kg, po; type: ADME, organism-based
# [2] = Cmax in rat plasma at 2 mg/kg, iv or 5 mg/kg, po; type: ADME, organism-based
# [3] = Cmax in cynomolgus monkey plasma at 1 mg/kg, iv or 1 mg/kg, po; type: ADME, organism-based, Macaca fascicularis
# [4] = Tmax in mouse at 1 mg/kg, iv or 1 mg/kg, po; type: ADME, organism-based; settings: in vivo
# [5] = Tmax in rat at 2 mg/kg, iv or 5 mg/kg, po; type: ADME, organism-based; settings: in vivo
# [6] = Tmax in cynomolgus monkey at 1 mg/kg, iv or 1 mg/kg, po; type: ADME, organism-based, Macaca fascicularis; settings: in vivo
# [7] = AUC (0 to 24 hrs) in mouse at 1 mg/kg, iv or 1 mg/kg, po; type: ADME, organism-based; settings: in vivo
# [8] = AUC (0 to 24 hrs) in rat at 2 mg/kg, iv or 5 mg/kg, po; type: ADME, organism-based; settings: in vivo
# [9] = AUC (0 to 24 hrs) in cynomolgus monkey at 1 mg/kg, iv or 1 mg/kg, po; type: ADME, organism-based, Macaca fascicularis; settings: in vivo
# [10] = Clearance in mouse at 1 mg/kg, iv; type: ADME, organism-based; settings: in vivo
# [11] = Clearance in rat at 2 mg/kg, iv; type: ADME, organism-based; settings: in vivo
# [12] = Clearance in cynomolgus monkey at 1 mg/kg, iv; type: ADME, organism-based, Macaca fascicularis; settings: in vivo
# [13] = Volume of distribution at steady state in mouse at 1 mg/kg, iv or 1 mg/kg, po; type: ADME, organism-based; settings: in vivo
# [14] = Volume of distribution at steady state in rat at 2 mg/kg, iv or 5 mg/kg, po; type: ADME, organism-based; settings: in vivo
# [15] = Volume of distribution at steady state in cynomolgus monkey at 1 mg/kg, iv or 1 mg/kg, po; type: ADME, organism-based, Macaca fascicularis; settings: in vivo
# [16] = Half life in mouse at 1 mg/kg, iv; type: ADME, organism-based; settings: in vivo
# [17] = Half life in rat at 2 mg/kg, iv; type: ADME, organism-based; settings: in vivo
# [18] = Half life in cynomolgus monkey at 1 mg/kg, iv; type: ADME, organism-based, Macaca fascicularis; settings: in vivo
# [19] = Oral bioavailability in mouse at 1 mg/kg; type: ADME, organism-based; settings: in vivo
# [20] = Oral bioavailability in rat at 5 mg/kg; type: ADME, organism-based; settings: in vivo
# [21] = Oral bioavailability in cynomolgus monkey at 1 mg/kg; type: ADME, organism-based, Macaca fascicularis; settings: in vivo
# [22] = Cmax in dog plasma at 0.5 mg/kg, iv or 0.5 mg/kg, po; type: ADME, organism-based, Canis lupus familiaris
# [23] = Tmax in dog at 0.5 mg/kg, iv or 0.5 mg/kg, po; type: ADME, organism-based, Canis lupus familiaris; settings: in vivo
# [24] = AUC (0 to 24 hrs) in dog at 0.5 mg/kg, iv or 0.5 mg/kg, po; type: ADME, organism-based, Canis lupus familiaris; settings: in vivo
# [25] = Clearance in dog at 0.5 mg/kg, iv; type: ADME, organism-based, Canis lupus familiaris; settings: in vivo
# [26] = Volume of distribution at steady state in dog at 0.5 mg/kg, iv or 0.5 mg/kg, po; type: ADME, organism-based, Canis lupus familiaris; settings: in vivo
# [27] = Half life in dog at 0.5 mg/kg, iv; type: ADME, organism-based, Canis lupus familiaris; settings: in vivo
# [28] = Oral bioavailability in dog at 0.5 mg/kg; type: ADME, organism-based, Canis lupus familiaris; settings: in vivo
# [29] = Metabolic stability in mouse liver microsomes assessed as compound remaining; type: ADME, Microsome
# [30] = Metabolic stability in rat liver microsomes assessed as compound remaining; type: ADME, Microsome
# [31] = Metabolic stability in cynomolgus monkey liver microsomes assessed as compound remaining; type: ADME, Macaca fascicularis, Microsome
# [32] = Metabolic stability in dog liver microsomes assessed as compound remaining; type: ADME, Canis lupus familiaris, Microsome
# [33] = Aqueous solubility of the compound at pH 1; type: physicochemical
# [34] = Aqueous solubility of the compound at pH 6.5; type: physicochemical
# [35] = Permeability of the compound at pH 7.4 by PAMPA assay; type: ADME; settings: read-out: permeability
# [36] = Dissociation constant, pKa of the compound; type: physicochemical
# [37] = Lipophilicity, log D of the compound at pH 6.5; type: physicochemical; settings: buffer
# [38] = Metabolic stability in human liver microsomes assessed as compound remaining; type: ADME, Microsome
# [39] = Plasma concentration in Lewis rat at 3 mg/kg, po measured after 4 hrs; type: ADME, organism-based
# [40] = Plasma concentration in Lewis rat at 3 mg/kg, po measured after 24 hrs; type: ADME, organism-based
# [41] = Half life in human administered as single dose; type: ADME
# in vivo = settings: Lewis, rat, plasma, po, 30 mg/kg
# [42] = Plasma concentration in Lewis rat at 10 mg/kg, po measured after 4 hrs; type: ADME, organism-based
# [43] = Plasma concentration in Lewis rat at 10 mg/kg, po measured after 24 hrs; type: ADME, organism-based
# [44] = Cmax in dog plasma at 1 mg/kg, iv or 1 mg/kg, po; type: ADME, organism-based, Canis lupus familiaris
# [45] = Tmax in dog at 1 mg/kg, iv or 1 mg/kg, po; type: ADME, organism-based, Canis lupus familiaris; settings: in vivo
# [46] = AUC (0 to 24 hrs) in dog at 1 mg/kg, iv or 1 mg/kg, po; type: ADME, organism-based, Canis lupus familiaris; settings: in vivo
# [47] = Clearance in dog at 1 mg/kg, iv; type: ADME, organism-based, Canis lupus familiaris; settings: in vivo
# [48] = Volume of distribution at steady state in dog at 1 mg/kg, iv or 1 mg/kg, po; type: ADME, organism-based, Canis lupus familiaris; settings: in vivo
# [49] = Half life in dog at 1 mg/kg, iv; type: ADME, organism-based, Canis lupus familiaris; settings: in vivo
# [50] = Oral bioavailability in dog at 1 mg/kg; type: ADME, organism-based, Canis lupus familiaris; settings: in vivo
SMILES,Cmax [1] [µM],Cmax [2] [µM],Cmax [3] [nM],Tmax [4] [min],Tmax [5] [h],Tmax [6] [h],AUC(0-t) [7] [µM·h],AUC(0-t) [8] [µM·h],AUC(0-t) [9] [µM·h],CL [10] [L/min/kg],CL [11] [L/min/kg],CL [12] [L/min/kg],Vdss [13] [L/kg],Vdss [14] [L/kg],Vdss [15] [L/kg],t1/2 [16] [h],t1/2 [17] [h],t1/2 [18] [h],bioavailability [19] [%],bioavailability [20] [%],also measured
O=C(O)C[C@H]1CCCN(C[C@@H](O)c2ccc(-c3noc(-c4onc(-c5ccccc5)c4C(F)(F)F)n3)cc2)C1,44,4.7,1500,30,3.7,10,315,66,26,0.1,1,0.5,0.2,2.2,1.1,23,28,27,62,87,bioavailability [21]: 90%; Cmax [22]: 489 µM; Tmax [23]: 4 h; AUC(0-t) [24]: 7.8 µM·h; CL [25]: 1.3 L/min/kg; Vdss [26]: 1.8 L/kg; t1/2 [27]: 24 h; bioavailability [28]: 90%; Stability [29]: > 98%; Stability [30]: > 98%; Stability [31]: > 98%; Stability [32]: > 98%; solubility [33]: > 850 µg/mL; solubility [34]: 229 µg/mL; Papp [35]: 29.5 ×10⁻⁶ cm/s; pKa [36]: 8.8; logD [37]: 3.94; Stability [38]: > 98%
CCCc1c(-c2nc(-c3ccc(C(O)CN4CCC[C@H](CC(=O)O)C4)cc3)no2)noc1-c1ccccc1 (some centres not stated),,,,,,,,,,,,,,,,,,,,,concentration at 4 h [39]: 685 nM; concentration at 24 h [40]: 40 nM
CCCCCCCCc1ccc(CCC(N)(CO)CO)cc1 [FINGOLIMOD],,,,,,,,,,,,,,,,,,,,,half-life [41]: 6 to 9 days
CCCc1c(-c2nc(-c3ccc(C(O)CNCCC(=O)O)cc3)no2)noc1-c1ccccc1 (configuration not stated),,,,,,,,,,,,,,,,,,,,,concentration at 4 h (in vivo): 142 nM
CCCc1c(-c2nc(-c3ccc(C(O)CN4CCC[C@H](C(=O)O)C4)cc3)no2)noc1-c1ccccc1 (some centres not stated),,,,,,,,,,,,,,,,,,,,,concentration at 4 h [42]: 1600 nM; concentration at 24 h [43]: 38 nM
O=C(O)[C@H]1CCCN(C[C@@H](O)c2ccc(-c3noc(-c4onc(-c5ccccc5)c4C(F)(F)F)n3)cc2)C1,45,5.3,1100,60,3.3,4,362,60,17,0.1,1.7,0.7,0.1,1.2,1.8,15,9,33,66,76,Cmax [44]: 840 nM; Tmax [45]: 48 min; AUC(0-t) [46]: 1.3 µM·h; CL [47]: 1.4 L/min/kg; Vdss [48]: 1.4 L/kg; t1/2 [49]: 12 h; bioavailability [21]: 88%; bioavailability [50]: 74%; Stability [29]: > 98%; Stability [30]: > 98%; Stability [31]: > 98%; Stability [32]: > 98%; Stability [38]: > 98%
